row,Compound,melting point [°C]
1,CC(=O)C=CC1=C(C)C(=O)CCC1(C)C,50 to 51
2,COc1cc(C(=O)O)c2oc(-c3ccc(OC)c(F)c3)cc2c1,254 to 256
3,CC(C)C(NC(=O)N(C)Cc1ccccn1)C(=O)NC(Cc1ccccc1)C(O)C(O)C(Cc1ccccc1)NC(=O)C(NC(=O)N(C)Cc1ccccn1)C(C)C (centres undefined),159 to 162
4,O=C(O)CN1C(=O)c2ccc(C(=O)O)cc2C1=O,262 to 265
5,CC(C)(C)OC(=O)N1CCN(C(=O)SCc2ccc(O[Si](C)(C)C(C)(C)C)cc2)CC1,53 to 54
6,COC(=O)c1ccc(I)cc1S(N)(=O)=O,176 to 177
7,CS(=O)(=O)Nc1cccc(Br)n1,90 to 94
8,COc1ccc(CCn2cc(C(=O)NCCN(C)C)c3nc4c(C)cccc4cc3c2=O)cc1OC,113 to 114
9,O=C1CCOC(N2CCN=C(c3ccccc3Cl)c3cc(Cl)ccc32)=N1,124 to 135
10,Oc1cc2c(cc1O)CN(c1ncnc3c(N4CCOCC4)nc(Cl)nc13)CC2,187 to 189
11,CC1(COc2c(-c3ccc(S(C)(=O)=O)cc3)cnn(CC(F)(F)F)c2=O)CC1,98 to 99
12,Cc1ncc2c(n1)-c1ccccc1N(C(=O)c1ccc([N+](=O)[O-])cc1)CC2,211 to 212
13,COc1ccc(C2=NN(C3CCOCC3)C(=O)[C@H]3CC=CC[C@@H]23)cc1OC1CCCC1 (relative stereo),116 to 117
14,CC(=CCP(=O)(O)O)C(N)C(=O)O (centres undefined),168
15,COC(=O)c1ccc2c(c1)C1(O)C(=O)c3ccccc3C1(O)O2 (centres undefined),220 to 223
16,CCc1oc2ccccc2c1C(=O)NCc1ccc2c(Br)c(OCC#N)ccc2c1,181 to 183
17,O=C(Nc1ccc(-n2nc(C(F)(F)F)cc2C2CC2)cc1)c1ccncc1F,143 to 146
18,ClCc1cncc(-c2ccccc2)c1,75 to 76
19,Nc1nc(N)nc(C2CCC(c3nc(N)nc(N)n3)CC2)n1 (centres undefined),317 to 321
20,CNc1c(F)ccc(-n2cc(C(=O)O)c(=O)c3cc(F)c(NC)c(Cl)c32)c1F,245 to 248
21,C=CC(C)OC(=O)c1c(C)nc2c(cnn2CCCCC)c1N (centres undefined),64.6 to 67.2
22,OCc1cccc2c1SC(c1ccccc1)=CC2,120 to 122
23,COCCOc1c(S(C)(=O)=O)ccc(Cl)c1C,83 to 85
24,O=C(O)CCCOc1ccc(OCCC(c2ccccc2)(c2ccccc2)c2ccccc2)cc1,138 to 139
25,CC(C)(C)c1cc(C(=O)c2ccn(Cc3ccccc3)c2)cc(C(C)(C)C)c1O,123 to 124

row,Compound,melting point [°C]
1,COc1ccc(CSc2nnc(-c3ccnc(NC(=O)CCc4ccccc4)c3)o2)cc1C(F)(F)F,180 to 181
2,CCCN(CCC)C(=O)CNc1nc(-c2ccccc2)ncc1CO,167 to 168
3,CSc1c(C(Cc2ccc(F)cc2)C(=O)O)ccc2c3ccccc3n(Cc3ccc(F)cc3)c12 (centres undefined),90 to 94
4,COc1cc2c(Nc3ccc(Oc4cccnc4)cc3)c(C#N)cnc2cc1N1CCC(N2CCCC2)CC1,194 to 196
5,CC(O)c1c(-c2ccc(O)cc2)oc2ccc(O)cc12 (centres undefined),177 to 182
6,CC1CN(C)c2c3c(nc4cccc(c24)O1)CCCC3 (centres undefined),125 to 126
7,CCOC(=O)c1cccn2cc(C)nc12,62 to 64
8,COc1cc(C=CC(=O)CCCCO)cc(OC)c1,78 to 80
9,CNC(=S)NS(=O)(=O)c1cc(CCNC(=O)/C=C/c2cccs2)ccc1OC,74 to 77
10,COC(=O)c1ccc(-c2nc3cc(C(=O)O)ccc3o2)cc1,275 to 284
11,CC(CN1C(=O)C2(COc3cc4c(cc32)CCO4)c2ccccc21)OCOCc1ccccc1 (centres undefined),49 to 52
12,CN1CCc2cc3ccccc3n2CC1,59 to 60
13,C[Si](C)(C)c1ccc2c(c1)Cc1cc([Si](C)(C)C)ccc1-2,117 to 118
14,COCCC(=O)Nc1ccc(CCCc2ccccc2OCc2ccccc2)cc1,65 to 66
15,O=C(NCc1ccc(Cl)cc1)c1cnc2ccc(O)cc2c1O,319 to 320
16,CCOC(=O)Cc1cccc2c(-c3ccc([N+](=O)[O-])cc3)nccc12,89.5 to 90.5
17,CCOc1ncc(C(C)=O)cc1C(=O)OC,111 to 112
18,Nc1nc(S(N)(=O)=O)c2ncn(C3OC(CO)C(O)C3O)c2n1 (centres undefined),> 193
19,O=[N+]([O-])c1cccc(Oc2cccc3cccnc23)c1,133 to 134
20,CC(C)N1C(=O)c2cncnc2N(C(=O)CN2CCN(C)CC2)c2ccccc21,133 to 135
21,COc1cc(N)c(Cl)cc1C(=O)NC1C2CCN(CC2)C1CN1CCCCC1 (centres undefined),185 to 187
22,Cc1oc(-c2ccccc2)nc1CCOc1ccc(COc2ncccc2CC(=O)O)cc1,134 to 135
23,COc1ccc(C(=O)Nc2ccccc2)cc1NCc1ccc(C(=O)O)cc1,> 240
24,N#CC1=C(c2ccccc2)Nc2n[nH]cc2C1c1ccccc1C#N (centres undefined),148
25,N#Cc1ccccc1-c1cccc(Cc2ccc(OCc3ccccc3)cc2)c1Nn1cnnc1,171 to 173

row,Compound,melting point [°C]
1,N#CCOc1ccc(C(=O)c2ccccc2)c(Cl)c1Cl,110 to 112
2,CSc1ccc(OC(=O)OCc2ccccc2Cl)cc1,49.5 to 50
3,O=C(NOCCO)c1cc(Cl)c(F)c(F)c1Nc1ccc(I)cc1,174 to 176
4,c1cn2cc(-c3cnc4cc[nH]c4c3)cc(Nc3cc4n(n3)CCOC4)c2n1,192 to 195
5,CN(C(=O)Cc1[nH]c(=O)c2ccc(Cl)cc2c1-c1ccccc1)c1cc(C(F)(F)F)cc(C(F)(F)F)c1,181 to 182
6,CCCCc1nc2c(N)nc3ccccc3c2n1CCNC(=O)CCCCC1SCC2NC(=N)NC21 (centres undefined),95 to 96
7,NC(=NO)c1ccc(C(=O)O)cn1,> 300
8,O=C1COc2cc3[nH]c(C(=O)O)cc3cc2N1,231 to 237
9,CN(Cc1cc2c(=O)c(C(=O)NCc3ccc(Cl)cc3)cn(C)c2o1)CC(O)CSc1nnc(N)s1 (centres undefined),200 to 204
10,COc1cccc(Cc2cc(F)ccc2O)c1,153 to 155
11,CCOC(=O)C1=C(C)NC(N)=C(C(=O)OCC)C1c1ccccc1C (centres undefined),130
12,COc1ccc2c(c1)C(=O)C(=Cc1cccc([N+](=O)[O-])c1)C(C)(C)O2,103 to 105
13,CC(C)(OCc1cc2cc(C(F)(F)F)ccc2n1S(=O)(=O)c1ccc2c(c1)OCCO2)C(=O)O,75
14,Nc1ccc(Cl)cc1C(=O)c1ccc(Cl)cc1,106 to 107
15,c1ccc(-c2cc(-c3csc(Nc4ccccn4)n3)on2)cc1,211 to 215
16,COc1ccc2c(c1F)C(=O)OC2=O,128 to 130
17,Oc1ccc(-c2cc3ccccc3nc2Cl)cc1,164 to 166
18,CS(=O)(=O)c1ccc(-c2cc(=O)cc(CO)o2)cc1,120
19,COc1ccc(CCN2CCC(NC(=O)c3ccccc3)CC2)cc1,178
20,O=C1CN=C(c2ccccc2)c2ccccc2N1CC(F)(F)F,130 to 131
21,OCC1OC(n2cnc3c(NCC4(c5ccccc5)CCCCC4)ncnc32)C(O)C1O (centres undefined),87 to 89
22,COc1cc(CCc2c(C=O)ccc(OC)c2OC)cc(OC)c1,88 to 89
23,CC(C)(C)c1cc(C(=O)NCCCSc2ccncc2)cc(C(C)(C)C)c1O,203 to 204
24,CCn1ncc2c1ncc1c(=O)[nH]c3cc(C)nn3c12,285 to 286
25,CN1CC(=O)Nc2ccccc21,132

row,Compound,melting point [°C]
1,COc1ccc(C2CNCc3c(OC)cccc32)cc1OC (centres undefined),106 to 112
2,Cc1ccc(C#N)c2c([N+](=O)[O-])ccc(Cl)c12,179 to 180
3,COc1ccc([N+](=O)[O-])c(C=CN2CCCC2)c1,71 to 72
4,COc1cc2c(cc1OC)CN(CCCCOc1ccc(NC(=O)c3cnc4ccccc4n3)cc1)CC2,141
5,Brc1cccc(OCCOc2nccnc2N2CCNCC2)c1,62 to 63
6,CC(=O)c1cc(C(C)(C)C)cc(C(=O)O)c1O,159 to 161
7,CC(=O)OCC(=O)Nc1cccc(N2CCCCC2)c1C#N,90 to 92
8,O=C(OC1CCC1)N1CCC(c2nc3cc(-c4ccc(-n5cnnn5)cc4F)ccc3o2)CC1,165 to 169
9,CNCCNCc1ccc(-c2cc3ncnc(Nc4ccc5[nH]ccc5c4)c3s2)cc1,93 to 105
10,CSc1nn(-c2c(Cl)cc(C(F)(F)F)cc2Cl)c(N)c1C(=O)c1cc(C)ccc1C,130 to 132
11,Clc1ncccc1OCC#CI,164 to 165
12,CC(C)N(C(=O)C(C)C(C#N)(c1ccccc1)c1ccccc1)C(C)C (centres undefined),195 to 205
13,CN(Cc1ccccc1C(F)(F)F)C1CCN(c2ccc(OC[C@@]3(C)Cn4cc([N+](=O)[O-])nc4O3)cc2)CC1,190
14,CC(=O)c1cccc(-c2ccc(Oc3ncccc3C(=O)O)cc2)c1,188
15,CCc1ccc(CCc2ccc(-c3ccc(OC(F)F)cc3)cc2)cc1,131
16,O=C(NCc1ccc(C(F)(F)F)cc1)c1ccnc(NC(=O)c2ccccc2)c1,165 to 168
17,O=C(NC(Cc1ccccc1)C(=O)O)OCc1ccc(CCCc2ccccc2)cc1 (centres undefined),135
18,CC(C)N1CCC(CN2CCN(CCCN3CCCCC3)C2=C(C#N)C#N)CC1,115 to 117
19,COc1ccc(Nc2nc(-c3ccc(OC)c(OC)c3)cs2)nc1,222 to 225
20,Cc1c(C)c2c(c(C)c1OCCc1ccccc1)C(c1ccc(C(C)C)cc1)C(C)(C)O2 (centres undefined),72 to 74
21,CCOC(=O)C1C(=O)NC(=O)C12C(=O)N(Cc1ccc(Cl)c(Cl)c1)c1ccccc12 (centres undefined),60 to 85
22,COc1ccc([C@@H]2Sc3ccccc3N(CCN(C)C)C(=O)[C@@H]2OC(=O)c2ccc([N+](=O)[O-])cc2Cl)cc1,153 to 156
23,CC(C)(C)[Si](C)(C)OC(CCCOC1CCCCO1)COc1ccc2c(=O)cc(-c3ccccc3)oc2c1 (centres undefined),138 to 145
24,O=C(NC(Cc1ccccc1)C(=O)O)OCc1ccc(COc2ccc(F)cc2)cc1 (centres undefined),112 to 113

# Source: a melting point compilation (Tetko et al.; mined from patent text by program, amines drawn as free bases though some values may be those of a salt)
